Tested on: cucumber powdery mildew fungus (Sphaerotheca fuliginea, a QoI-resistant strain, cytochrome b position 143 glycine to alanine)
Assay type: in vivo
Details: 500 ppm spray on cucumber (SAGAMI HANJIRO); investigated 8 days after inoculation

SMILES: Cn1nnn(-c2ccccc2OCc2ccccc2)c1=O [1-[2-(phenylmethoxy)phenyl]-4-methyl-1,4-dihydrotetrazol-5-one]
- area of lesion on the treated plant relative to that on an untreated plant: ≥ 70%

— patent US10091998B2, “Tetrazolinone compound and use thereof” (SUMITOMO CHEMICAL COMPANY, LIMITED, priority 2013, dated 2018)
